{"source": "patent US4818748A", "about": "“Renin inhibitors and aminoacid and aminoaldehyde derivatives” (Bayer Aktiengesellschaft, priority 1986, dated 1989)", "key": {"[1]": {"test_system": "spontaneously hypertensive rats", "assay": "In vivo test: systolic blood pressure of conscious spontaneously hypertensive rats, indirect tail-cuff measurement", "design": "species or system rat", "conditions": "conscious SHR; for systolic blood pressure: oral dose of 100 mg/kg", "source_text": "From the current state of the art, it was not to be expected that the compounds according to the invention have a hypotensive action when administered orally. […] [See Table 1].\nThe blood pressure of the conscious animals is thereby measured by the customary indirect measurement method on the tail, using an inflatable occlusion cuff and an infra-tone pulse recorder [compare H. Breuninger: Methoden zur unblutigen Messung des Blutdrucks an Kleintieren (Methods of bloodless measurement of the blood pressure on small animals), Arzneimittleforschung 6, 222-225 (1956)]. The substance is administered as a suspension in 1% strength Tylose by means of a stomach tube. The systolic blood pressure is measured before and 1, 2, 4 and 6 hours after administration."}, "[2]": {"target": "T1, endogenous resin from human plasma (Homo sapiens, UniProt P00797)", "T1 construct": "endogenous resin from human plasma; from tissue; host or cells: pooled human plasma (EDTA)", "T1 sequence (P00797 67-406)": "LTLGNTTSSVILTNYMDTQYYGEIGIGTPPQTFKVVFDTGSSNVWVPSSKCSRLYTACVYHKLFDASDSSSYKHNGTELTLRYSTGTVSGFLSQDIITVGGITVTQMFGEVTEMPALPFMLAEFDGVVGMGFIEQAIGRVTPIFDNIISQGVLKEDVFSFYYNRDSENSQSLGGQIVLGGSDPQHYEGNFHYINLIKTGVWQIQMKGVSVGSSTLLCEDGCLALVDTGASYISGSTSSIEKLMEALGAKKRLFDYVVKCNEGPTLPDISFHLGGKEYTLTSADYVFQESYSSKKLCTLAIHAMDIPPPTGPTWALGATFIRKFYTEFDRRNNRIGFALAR", "assay": "In vitro test: inhibition of plasma renin activity (angiotensin I formation, radioimmunoassay)", "type": "biochemical", "experimental": "The inhibitory strength of the peptides according to the invention against endogenous resin from human plasma is determined in vitro. Pooled human plasma is obtained, with the addition of ethylenediaminetetraacetic acid (EDTA) as an anticoagulant and is stored at -20° C. The plasma renin activity (PRA) is determined as the rate of formation of angiotensin I from endogenous angiotensinogen and renin after incubation at 37° C. The reaction solution contains 150 μl of plasma, 3 μl of 6.6% strength 8-hydroxyquinoline sulphate solution, 3 μl of 10% strength dimercaprol solution and 144 μl of sodium phosphate buffer (0.2M; 0.1% of EDTA; pH 5.6) with or without the substances according to the invention in various concentrations. The angiotensin I formed per unit time is determined by radioimmunoassay (Sorin Biomedica, Italy). The percentage inhibition of the plasma renin activity is calculated by comparison of the amount of angiotensin I formed here with or without the substances according to the invention."}, "[3]": {"test_system": "sodium-deficient spontaneously hypertensive rats", "assay": "Mean arterial pressure in anaesthetized sodium-deficient spontaneously hypertensive rats", "type": "in vivo, rat", "conditions": "intragastral administration; sodium-deficient SHR (furosemide in drinking water 14 days), anaesthetized with Inactin"}}, "data": [{"smiles": "CC[C@H](C)[C@H](NC(=O)C[C@H](O)[C@H](Cc1ccc([N+](=O)[O-])cc1)NC(=O)[C@H](Cc1c[nH]cn1)NC(=O)[C@H](Cc1ccccc1)NC(=O)OC(C)(C)C)C(=O)OC", "note": "[Example 12, N-tert.-Butoxycarbonyl-phenylalanyl-L-histidyl-4S-amino-3S-hydroxy-5-(4-nitrophenyl)pentanoyl-L-isoleucine methyl ester]", "values": [{"measurement": "systolic blood pressure", "setting": "[1]; 0 hours (before administration)", "value": 165.0, "unit": "mm Hg"}, {"measurement": "systolic blood pressure", "setting": "[1]; 1 hour after administration", "value": 163.1, "unit": "mm Hg"}, {"measurement": "systolic blood pressure", "setting": "[1]; 2 hours after administration", "value": 161.8, "unit": "mm Hg"}, {"measurement": "systolic blood pressure", "setting": "[1]; 4 hours after administration", "value": 151.8, "unit": "mm Hg"}, {"measurement": "systolic blood pressure", "setting": "[1]; 6 hours after administration", "value": 148.5, "unit": "mm Hg"}, {"measurement": "antihypertensive action (in words)", "setting": "[1]; oral administration of 100 mg/kg", "value": "antihypertensive action is observed"}, {"measurement": "inhibition of renin activity in vitro (in words)", "setting": "[2]", "value": "inhibit the renin activity in vitro"}, {"measurement": "mean arterial pressure (in words)", "setting": "[3]", "value": "reduces the mean arterial pressure"}]}]}
